Measurements reported in patent US9340577B2, “HLA binding motifs and peptides and their uses” (priority 1992, dated 2016).
No end group written: not given here.

What was measured:
Assay in all cases: biochemical
Type in all cases: binding
[1] = target: HLA-A*0201 (HLA-A2.1) (Homo sapiens, UniProt P04439, D140Y/D185E/D98H/E176V/E277Q/G131W/G231S/I119V/I121R/I166T/I218V/L300P/L318F/N151K/N90K/P208A/P217A/Q86G/Q94H/R138H/R169H/T345S)
[2] = target: A*0206 (Homo sapiens, UniProt P04439, D140Y/D185E/D98H/E176V/E277Q/F33Y/G131W/G231S/I119V/I121R/I166T/I218V/L300P/L318F/N151K/N90K/P208A/P217A/Q86G/Q94H/R138H/R169H/T345S)
[3] = target: A*0202 (Homo sapiens, UniProt P04439, D140Y/D185E/D98H/E176V/E277Q/G131W/G231S/I119L/I121R/I166T/I218V/L180W/L300P/L318F/N151K/N90K/P208A/P217A/Q67R/Q86G/Q94H/R138H/R169H/T345S)
[4] = target: A*6802 (Homo sapiens, UniProt P04439, A269V/D140Y/D185E/E176V/E277Q/E87N/F33Y/G231S/I121R/I166T/I218V/L180W/L300P/L318F/N151K/P208A/P217A/Q86R/R138H/R169H/S129P/T345S/V36M)
[5] = target: A*0203 (Homo sapiens, UniProt P04439, A173T/D140Y/D185E/D98H/E277Q/G131W/G231S/I119V/I121R/I166T/I218V/L180W/L300P/L318F/N151K/N90K/P208A/P217A/Q86G/Q94H/R138H/R169H/T345S)

Molecule: EVLLLVHNV [Peptide 9013.0021]
- IC50 [1]: 3030 nM
- IC50 [2]: 107 nM
- IC50 [3]: 6240 nM
- IC50 [4]: 3 nM
- IC50 [5]: 6600 nM

Molecule: VLKSDLVNEEA [Peptide 9013.0279]
- IC50 [1]: > 20000 nM
- IC50 [2]: > 20000 nM
- IC50 [3]: 14 nM
- IC50 [4]: > 20000 nM
- IC50 [5]: 3420 nM

Molecule: RILQQLLLI [Peptide 1525.20]
- IC50 [1]: 199 nM
- IC50 [2]: 82 nM
- IC50 [3]: 4680 nM
- IC50 [4]: > 20000 nM
- IC50 [5]: 1000 nM

Molecule: CC[C@H](C)[C@H](N)C(=O)N[C@@H](CCSC)C(=O)N[C@H](C(=O)NCC(=O)N[C@H](C(=O)N[C@@H](CC(C)C)C(=O)N[C@H](C(=O)NCC(=O)N[C@H](C(=O)N[C@@H](C)C(=O)N[C@H](C(=O)O)C(C)C)C(C)C)C(C)C)C(C)C)[C@@H](C)CC [Peptide 9013.0346]
- IC50 [1]: 75 nM
- IC50 [2]: 61 nM
- IC50 [3]: 18 nM
- IC50 [4]: 9000 nM
- IC50 [5]: 55 nM

Molecule: IIYPNASLV [Peptide 9013.0029]
- IC50 [1]: 230 nM
- IC50 [2]: 152 nM
- IC50 [3]: 24 nM
- IC50 [4]: 409 nM
- IC50 [5]: 4 nM

Molecule: QLSNGNRTLV [Peptide 9013.0229]
- IC50 [1]: > 20000 nM
- IC50 [2]: > 20000 nM
- IC50 [3]: 66 nM
- IC50 [4]: > 20000 nM
- IC50 [5]: 146 nM

Molecule: MTSNPAIPV [Peptide 1539.03]
- IC50 [1]: 1470 nM
- IC50 [2]: 911 nM
- IC50 [3]: 951 nM
- IC50 [4]: 2 nM
- IC50 [5]: 68 nM

Molecule: QLHTQELFI [Peptide 9013.0079]
- IC50 [1]: 832 nM
- IC50 [2]: 11700 nM
- IC50 [3]: 25 nM
- IC50 [4]: 19100 nM
- IC50 [5]: 264 nM

Molecule: ALAEAMSQA [Peptide 1539.04]
- IC50 [1]: 15 nM
- IC50 [2]: 17 nM
- IC50 [3]: 1.9 nM
- IC50 [4]: 3020 nM
- IC50 [5]: 20 nM

Molecule: TVNNSGSYV [Peptide 9013.0064]
- IC50 [1]: 16600 nM
- IC50 [2]: > 20000 nM
- IC50 [3]: 310 nM
- IC50 [4]: 44 nM
- IC50 [5]: 39 nM

Molecule: QITPLCVTL [Peptide 1516.13]
- IC50 [1]: 976 nM
- IC50 [2]: 634 nM
- IC50 [3]: 124 nM
- IC50 [4]: 2870 nM
- IC50 [5]: 4390 nM

Molecule: GTQQATPGPV [Peptide 9013.0142]
- IC50 [1]: > 20000 nM
- IC50 [2]: > 20000 nM
- IC50 [3]: > 20000 nM
- IC50 [4]: > 20000 nM
- IC50 [5]: 36 nM

Molecule: RTLQLLLFV [Peptide 1525.25]
- IC50 [1]: 4.7 nM
- IC50 [2]: 11 nM
- IC50 [3]: 371 nM
- IC50 [4]: 3210 nM
- IC50 [5]: 468 nM

Molecule: QLSNGNRTLTL [Peptide 9013.0292]
- IC50 [1]: > 20000 nM
- IC50 [2]: > 20000 nM
- IC50 [3]: 80 nM
- IC50 [4]: > 20000 nM
- IC50 [5]: 683 nM

Molecule: PQYSWRINGV [Peptide 9013.0235]
- IC50 [1]: > 20000 nM
- IC50 [2]: > 20000 nM
- IC50 [3]: 1330 nM
- IC50 [4]: > 20000 nM
- IC50 [5]: 25 nM

Molecule: GLFQQSTQEL [Peptide 9013.0176]
- IC50 [1]: 1360 nM
- IC50 [2]: > 20000 nM
- IC50 [3]: 6.2 nM
- IC50 [4]: > 20000 nM
- IC50 [5]: 48 nM

Molecule: FQGSVISFV [Peptide 1578.38]
- IC50 [1]: 15 nM
- IC50 [2]: 13 nM
- IC50 [3]: 1.8 nM
- IC50 [4]: 564 nM
- IC50 [5]: 1.8 nM

Molecule: SLQDSQFEL [Peptide 1578.35]
- IC50 [1]: 141 nM
- IC50 [2]: 160 nM
- IC50 [3]: 1.4 nM
- IC50 [4]: 8850 nM
- IC50 [5]: 165 nM

Molecule: TLELFISNI [Peptide 9013.0082]
- IC50 [1]: 2460 nM
- IC50 [2]: 3850 nM
- IC50 [3]: 170 nM
- IC50 [4]: 949 nM
- IC50 [5]: 1700 nM

Molecule: TVTTITVYV [Peptide 9013.0068]
- IC50 [1]: 102 nM
- IC50 [2]: 95 nM
- IC50 [3]: 12 nM
- IC50 [4]: 3 nM
- IC50 [5]: 58 nM

Molecule: GMIDDVTPI [Peptide 1578.24]
- IC50 [1]: 25 nM
- IC50 [2]: 24 nM
- IC50 [3]: 0.2 nM
- IC50 [4]: > 20000 nM
- IC50 [5]: 0.63 nM
